{"source": "ChEMBL document CHEMBL1201862", "about": "“PubChem BioAssay data set” (2004)", "assay_in_all_cases": "growth of human tumour cells (NCI), 48 h", "key": {"[1]": {"system": "HOP-62"}, "[2]": {"system": "UACC-257"}, "[3]": {"system": "A549"}, "[4]": {"system": "HCC 2998"}, "[5]": {"system": "HCT-116"}, "[6]": {"system": "HOP-18"}, "[7]": {"system": "NCI-H226"}, "[8]": {"system": "M19-MEL"}, "[9]": {"system": "SF-539"}, "[10]": {"system": "CCRF-CEM"}, "[11]": {"system": "SNB-78"}, "[12]": {"system": "UACC-62"}, "[13]": {"system": "SF-295"}, "[14]": {"system": "DLD-1"}, "[15]": {"system": "SF-268"}, "[16]": {"system": "HT-29"}, "[17]": {"system": "HOP-92"}, "[18]": {"system": "DMS-273"}, "[19]": {"system": "RPMI-8226"}, "[20]": {"system": "SN12C"}, "[21]": {"system": "A498"}, "[22]": {"system": "U-251"}, "[23]": {"system": "COLO 205"}, "[24]": {"system": "SK-OV-3"}, "[25]": {"system": "IGROV-1"}, "[26]": {"system": "HCT-15"}, "[27]": {"system": "DMS-114"}, "[28]": {"system": "SW-620"}, "[29]": {"system": "LOX IMVI"}, "[30]": {"system": "KM12"}, "[31]": {"system": "NCI-H522"}, "[32]": {"system": "EKVX"}, "[33]": {"system": "RXF 393"}, "[34]": {"system": "OVCAR-4"}, "[35]": {"system": "Malme-3M"}, "[36]": {"system": "MCF7"}, "[37]": {"system": "SK-MEL-5"}, "[38]": {"system": "SK-MEL-2"}, "[39]": {"system": "KM-20L2"}, "[40]": {"system": "OVCAR-3"}, "[41]": {"system": "SNB-75"}, "[42]": {"system": "OVCAR-8"}, "[43]": {"system": "SNB-19"}, "[44]": {"system": "MOLT-4"}, "[45]": {"system": "OVCAR-5"}, "[46]": {"system": "CAKI-1"}, "[47]": {"system": "NCI-H460"}, "[48]": {"system": "UO-31"}, "[49]": {"system": "SK-MEL-28"}, "[50]": {"system": "NCI-H23"}, "[51]": {"system": "XF498"}, "[52]": {"system": "HL-60"}, "[53]": {"system": "K562"}, "[54]": {"system": "NCI/ADR-RES"}}, "note": "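Following 48 hours of exposure in 96-well plates, responses at five concentrations were used to interpolate endpoints linearly. The concentration for 50% growth inhibition is given as GI50.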 Active and inactive are the calls of the source. Cut-off read from the data, not from the text of the source: active = GI50 up to about 1.1 µM and inactive = higher."}
{"smiles": "Cc1c2cc[n+](C)cc2c(COC2OC(CO)C(O)C2O)c2c3ccccc3n(C)c12", "note": "(centres undefined)", "values": [{"measurement": "GI50", "setting": "[1]", "result": "58.6 µM (inactive)"}, {"measurement": "GI50", "setting": "[2]", "result": "> 100 µM (inactive)"}, {"measurement": "GI50", "setting": "[3]", "result": "74.3 µM (inactive)"}, {"measurement": "GI50", "setting": "[4]", "result": "> 100 µM (inactive)"}, {"measurement": "GI50", "setting": "[5]", "result": "> 100 µM (inactive)"}, {"measurement": "GI50", "setting": "[6]", "result": "27.5 µM (inactive)"}, {"measurement": "GI50", "setting": "[7]", "result": "28.6 µM (inactive)"}, {"measurement": "GI50", "setting": "[8]", "result": "65.5 µM (inactive)"}, {"measurement": "GI50", "setting": "[9]", "result": "90.4 µM (inactive)"}, {"measurement": "GI50", "setting": "[10]", "result": "> 87.9 µM (inactive)"}, {"measurement": "GI50", "setting": "[11]", "result": "83.9 µM (inactive)"}, {"measurement": "GI50", "setting": "[12]", "result": "> 96.8 µM (inactive)"}, {"measurement": "GI50", "setting": "[13]", "result": "57 µM (inactive)"}, {"measurement": "GI50", "setting": "[14]", "result": "> 100 µM (inactive)"}, {"measurement": "GI50", "setting": "[15]", "result": "15.8 µM (inactive)"}, {"measurement": "GI50", "setting": "[16]", "result": "> 100 µM (inactive)"}, {"measurement": "GI50", "setting": "[17]", "result": "77.6 µM (inactive)"}, {"measurement": "GI50", "setting": "[18]", "result": "> 89.9 µM (inactive)"}, {"measurement": "GI50", "setting": "[19]", "result": "99.5 µM (inactive)"}, {"measurement": "GI50", "setting": "[20]", "result": "6.85 µM (inactive)"}, {"measurement": "GI50", "setting": "[21]", "result": "> 100 µM (inactive)"}, {"measurement": "GI50", "setting": "[22]", "result": "48.6 µM (inactive)"}, {"measurement": "GI50", "setting": "[23]", "result": "> 100 µM (inactive)"}, {"measurement": "GI50", "setting": "[24]", "result": "> 88.7 µM (inactive)"}, {"measurement": "GI50", "setting": "[25]", "result": "> 100 µM (inactive)"}, {"measurement": "GI50", "setting": "[26]", "result": "> 100", "unit": "µM"}, {"measurement": "GI50", "setting": "[27]", "result": "46.3 µM (inactive)"}, {"measurement": "GI50", "setting": "[28]", "result": "> 100 µM (inactive)"}, {"measurement": "GI50", "setting": "[29]", "result": "> 100 µM (inactive)"}, {"measurement": "GI50", "setting": "[30]", "result": "> 100 µM (inactive)"}, {"measurement": "GI50", "setting": "[31]", "result": "63.1 µM (inactive)"}, {"measurement": "GI50", "setting": "[32]", "result": "> 95.5 µM (inactive)"}, {"measurement": "GI50", "setting": "[33]", "result": "> 100 µM (inactive)"}, {"measurement": "GI50", "setting": "[34]", "result": "> 100 µM (inactive)"}, {"measurement": "GI50", "setting": "[35]", "result": "62.1 µM (inactive)"}, {"measurement": "GI50", "setting": "[36]", "result": "> 100 µM (inactive)"}, {"measurement": "GI50", "setting": "[37]", "result": "61.8 µM (inactive)"}, {"measurement": "GI50", "setting": "[38]", "result": "> 100 µM (inactive)"}, {"measurement": "GI50", "setting": "[39]", "result": "31.6 µM (inactive)"}, {"measurement": "GI50", "setting": "[40]", "result": "> 100 µM (inactive)"}, {"measurement": "GI50", "setting": "[41]", "result": "25 µM (inactive)"}, {"measurement": "GI50", "setting": "[42]", "result": "99.1 µM (inactive)"}, {"measurement": "GI50", "setting": "[43]", "result": "14.5 µM (inactive)"}, {"measurement": "GI50", "setting": "[44]", "result": "45.5 µM (inactive)"}, {"measurement": "GI50", "setting": "[45]", "result": "> 100 µM (inactive)"}, {"measurement": "GI50", "setting": "[46]", "result": "> 100 µM (inactive)"}, {"measurement": "GI50", "setting": "[47]", "result": "19.2 µM (inactive)"}, {"measurement": "GI50", "setting": "[48]", "result": "> 100 µM (inactive)"}, {"measurement": "GI50", "setting": "[49]", "result": "53 µM (inactive)"}, {"measurement": "GI50", "setting": "[50]", "result": "58.3 µM (inactive)"}, {"measurement": "GI50", "setting": "[51]", "result": "50.7 µM (inactive)"}, {"measurement": "GI50", "setting": "[52]", "result": "> 100 µM (inactive)"}, {"measurement": "GI50", "setting": "[53]", "result": "> 100 µM (inactive)"}, {"measurement": "GI50", "setting": "[54]", "result": "> 97.7 µM (inactive)"}]}
